Source: patent US20250213649A1, “PEPTIDE HAVING ANTI-INFLAMMATORY AND ANTI-FIBROTIC ACTIVITIES AND USE THEREOF” (CAREGEN CO., LTD., priority 2022, published 2025)

Tests used:
[1] = system: MRC-5 cells; assay: Inhibition of LPS-induced inflammatory cytokine gene expression, RT-PCR, MRC-5 cells; type: cell-based; conditions: 5 μg/ml LPS, peptide 10, 50, 100, 500 μM, 24 hours, RT-PCR (FIG. 1)
Experimental: (§1) MRC-5 cells (lung fibroblast cells) were seeded at 3×10^5 cells/well in a 12-well plate and used in the experiment. After culturing for 1 day with a culture medium containing 10% FBS, the culture medium was replaced with a culture medium without containing FBS to induce starvation for 4 hours. A normal group without being treated with any substances, a group treated with 5 μg/ml of LPS (Sigma Aldrich) (negative control group), groups treated with 5 μg/ml of LPS and the peptide of Production Example 1 (10, 50, 100, 500 μM), and a group treated with 5 μg/ml of LPS and 10 μM of Dexamethasone (DEX) (positive control group) were treated with active substances and drugs respectively, and then RNA was extracted after 24 hours to carry out RT-PCR. RNA was extracted from MRC-5 cells using an easy-BLUE™ Total RNA extraction kit (Qiagen, Germany). The extracted RNA was converted into cDNA with RT-PCR premix (iNtRON Biotechnology, Seongnam, Korea). After preparing a reaction mixture with PCR premix (iNtRON Biotechnology, Seongnam, Korea) and primers for each gene, PCR was carried out using a PCR machine (Eppendorf, Germany). Next, the mRNA expression pattern was determined by agarose gel electrophoresis. The base sequences of the primers used in the experiment are listed in [Table 2] below.

[2] = system: MRC-5 cells; assay: Western blotting of LPS-induced inflammatory cytokine/signaling proteins, MRC-5 cells; type: cell-based; conditions: 5 μg/ml LPS, peptide 10, 50, 100, 500 μM, 24 hours, Western blot (FIG. 3)
Experimental: MRC-5 cells (lung fibroblast cells) were seeded at 2×10^5 cells/well in a 6-well plate and used in the experiment. After culturing for 1 day with a culture medium containing 10% FBS, the culture medium was replaced with a culture medium without containing FBS to induce starvation for 4 hours. Cells of a normal group without being treated with any substances, a group treated with 5 μg/ml of LPS (Sigma Aldrich) (negative control group), groups treated with 5 μg/ml of LPS and the peptide of Production Example 1 (10, 50, 100, 500 μM), and a group treated with 5 μg/ml of LPS and 10 μM of Dexamethasone (DEX) (positive control group) were treated with active substances and drugs respectively and then cultured for 24 hours. The cultured cells of each treatment group and control group were lysed by adding a lysis buffer, and then centrifugation was carried out at 4° C. at 12,000 rpm for 30 minutes to obtain proteins, which were subsequently quantified using a BCA Protein Assay kit (Sigma). The proteins were subjected to SDS-PAGE (sodium dodecyl sulfate-polyacrylamide gel electrophoresis) and then subjected to electrotransfer to a membrane. The membrane to which the proteins were attached was treated with 5% skim milk for blocking and then subjected to a reaction with a primary antibody overnight at 4° C. After washing with PBS-T, the membrane was subjected to a reaction with a secondary antibody at room temperature for 1 hour, washed again with PBS-T, and then visualized by a Western detection reagent (Elpis Biotech, Daejeon, Korea) using Gel Doc (Bio-Rad, Hercules, CA, USA). The antibodies used in the experiment are as follows. An Anti-IL-1β antibody (Cell signaling technology (CST), USA), an anti-IL-6 antibody (Santa Cruz Biotechnology, USA), an anti-pJNK antibody (Santa Cruz Biotechnology, USA), an anti-pERK antibody (Cell signaling technology (CST), USA), and an anti-β-Actin antibody (Santa Cruz Biotechnology, USA).

[3] = system: MRC-5 cells; assay: Inhibition of fibrosis gene expression induced by LPS, RT-PCR, MRC-5 cells; type: cell-based; conditions: 5 μg/ml LPS, peptide 10, 50, 100, 500 μM, 3 hours, RT-PCR (FIG. 6)
Experimental: as §1, with “seeded at 2×10^5 cells/well in” for “seeded at 3×10^5 cells/well in”, “4 hours. Cells of a normal group” for “4 hours. A normal group”, “treated with the above-described active substances” for “treated with active substances”, “extracted after 3 hours to” for “extracted after 24 hours to”, “into cDNA using RT-PCR premix” for “into cDNA with RT-PCR premix”, “gel electrophoresis.” for “gel electrophoresis. The base sequences of the primers used in the experiment are listed in [Table 2] below.”

[4] = system: A549 cells; assay: ELISA of inflammatory cytokine proteins induced by IL-1β, A549 cells; type: cell-based, human; conditions: IL-1β 2 ng/ml, peptide 10, 50, 100, 500 μM, 72 hours, culture supernatant (FIG. 9a-9c)
Experimental: A549 cells (human alveolar basal epithelial cells) were seeded at 2×10^5 cells/well in a 12-well plate and used in the experiment. After culturing for 1 day with a culture medium containing 10% FBS, the culture medium was replaced with a culture medium without containing FBS to induce starvation for 4 hours. Cells of a normal group (NON) without being treated with any substances, a group treated with IL-1β (2 ng/ml) (negative control group, NC), groups treated with IL-1β (2 ng/ml) and the peptide of Production Example 1 (10, 50, 100, 500 μM), and a group treated with IL-1β (2 ng/ml) and Dexamethasone (DEX) (10 μM) (positive control group) were treated with active substances and drugs respectively, and then cultured for 72 hours. After cell culture, the supernatant obtained by centrifuging the culture solution at 4° C. and 3,000 rpm for 10 minutes was subjected to ELISA analysis using an IL-6 Quantikine ELISA Kit (R&D systems), an IL-8 Quantikine ELISA Kit (R&D systems), and an IL-1β Quantikine ELISA Kit (R&D systems) according to the method of use in the kit instructions, and then the absorbance was measured at 450 nm using a microplate reader.

KYLLVHRPYYRR [peptide of Production Example 1]
gene expression of IL-1β [1]: decreases in a concentration-dependent manner
gene expression of IL-6 [1]: decreases in a concentration-dependent manner
gene expression of IL-8 [1]: decreases in a concentration-dependent manner
gene expression of TNF-α [1]: decreases in a concentration-dependent manner
expression of IL-1β (protein) [2]: decreased again the expression of IL-1β, IL-6, pJNK, and pERK in a concentration-dependent manner
expression of IL-6 (protein) [2]: decreased again the expression of IL-1β, IL-6, pJNK, and pERK in a concentration-dependent manner
expression of pERK [2]: decreased again the expression of IL-1β, IL-6, pJNK, and pERK in a concentration-dependent manner
expression of pJNK [2]: decreased again the expression of IL-1β, IL-6, pJNK, and pERK in a concentration-dependent manner
expression level of Collagen 1A1 gene [3]: decreases again the expression levels of the α-SMA and Collagen 1A1 genes in a concentration-dependent manner
expression level of α-SMA gene [3]: decreases again the expression levels of the α-SMA and Collagen 1A1 genes in a concentration-dependent manner
expression level of IL-1β (ELISA) [4]: decreases the expression levels of IL-1B, IL-6, and IL-8 in a concentration-dependent manner
expression level of IL-6 (ELISA) [4]: decreases the expression levels of IL-1B, IL-6, and IL-8 in a concentration-dependent manner
expression level of IL-8 (ELISA) [4]: decreases the expression levels of IL-1B, IL-6, and IL-8 in a concentration-dependent manner
